Measurements taken from ChEMBL document CHEMBL1149662, “Design and synthesis of a library of tertiary amides: evaluation as mimetics of the melanocortins' active core” (Bioorg Med Chem, 2007).

Tests used:
[1] = molecular target: Melanocyte-stimulating hormone receptor (Mus musculus, UniProt Q01727); test: Displacement of [125I]NDP-MSH from MC1 receptor in mouse B16 cells; format: cell-based
Melanocortin receptor 3 = Melanocortin receptor 3 (Homo sapiens, UniProt P41968); test: Displacement of [125I]NDP-MSH from human recombinant MC3 receptor expressed in Sf9 cells
Melanocortin receptor 4 = Melanocortin receptor 4 (Homo sapiens, UniProt P32245); test: Displacement of [125I]NDP-MSH from human recombinant MC4 receptor expressed in Sf9 cells
Melanocortin receptor 5 = Melanocortin receptor 5 (Homo sapiens, UniProt P33032); test: Displacement of [125I]NDP-MSH from human recombinant MC5 receptor expressed in Sf9 cells
Melanocortin receptor 5, sequence (P33032 whole entry): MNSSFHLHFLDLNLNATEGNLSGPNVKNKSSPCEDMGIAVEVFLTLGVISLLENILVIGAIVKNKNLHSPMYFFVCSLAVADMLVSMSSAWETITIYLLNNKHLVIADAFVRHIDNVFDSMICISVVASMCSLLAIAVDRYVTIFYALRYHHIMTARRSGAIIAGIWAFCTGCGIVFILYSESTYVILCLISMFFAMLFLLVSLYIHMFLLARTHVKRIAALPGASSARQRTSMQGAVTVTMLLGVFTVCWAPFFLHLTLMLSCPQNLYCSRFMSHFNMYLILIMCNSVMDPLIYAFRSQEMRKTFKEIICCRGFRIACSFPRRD

Melanocortin receptor 4, sequence (P32245 whole entry): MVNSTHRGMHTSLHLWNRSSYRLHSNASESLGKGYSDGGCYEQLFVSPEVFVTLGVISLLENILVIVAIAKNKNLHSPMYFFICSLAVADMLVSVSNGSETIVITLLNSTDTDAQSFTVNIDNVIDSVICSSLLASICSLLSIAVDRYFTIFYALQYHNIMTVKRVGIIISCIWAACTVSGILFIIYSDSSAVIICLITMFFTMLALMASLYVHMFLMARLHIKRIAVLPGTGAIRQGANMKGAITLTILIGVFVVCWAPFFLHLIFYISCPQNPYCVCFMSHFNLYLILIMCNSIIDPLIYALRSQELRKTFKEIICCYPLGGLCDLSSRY
Melanocortin receptor 3, sequence (P41968 whole entry): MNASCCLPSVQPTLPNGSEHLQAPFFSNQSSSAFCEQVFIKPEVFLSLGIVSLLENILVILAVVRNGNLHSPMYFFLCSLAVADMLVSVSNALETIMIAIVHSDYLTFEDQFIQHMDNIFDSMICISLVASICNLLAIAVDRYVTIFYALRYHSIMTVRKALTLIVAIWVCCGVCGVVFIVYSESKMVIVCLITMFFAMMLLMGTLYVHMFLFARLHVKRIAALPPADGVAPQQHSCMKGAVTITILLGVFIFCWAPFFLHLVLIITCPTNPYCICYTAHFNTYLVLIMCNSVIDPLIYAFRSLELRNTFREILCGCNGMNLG
Melanocyte-stimulating hormone receptor, sequence (Q01727 whole entry): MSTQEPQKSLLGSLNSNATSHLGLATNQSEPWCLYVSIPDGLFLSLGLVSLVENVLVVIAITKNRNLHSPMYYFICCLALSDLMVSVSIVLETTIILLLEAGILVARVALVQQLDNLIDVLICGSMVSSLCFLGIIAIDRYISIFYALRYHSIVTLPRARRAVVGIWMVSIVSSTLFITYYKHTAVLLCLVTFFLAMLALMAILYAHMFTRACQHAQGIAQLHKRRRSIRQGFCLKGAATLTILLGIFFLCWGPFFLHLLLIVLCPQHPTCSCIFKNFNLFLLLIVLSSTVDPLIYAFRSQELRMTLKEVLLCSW

Ki [1]	Ki (Melanocortin receptor 3)	Ki (Melanocortin receptor 4)	Ki (Melanocortin receptor 5)	SMILES
1.5 µM	289 µM	5.9 µM		NC1CCC(CC2CCC(N(C/C(Cl)=C/c3ccccc3)C(=O)COc3ccc4ccccc4c3)CC2)CC1 (stereo in doubt; form 2)
2.3 µM	33 µM	5.2 µM	5.4 µM	NC1CCC(CC2CCC(N(C/C(Cl)=C/c3ccccc3)C(=O)CCCc3c[nH]c4ccccc34)CC2)CC1 (stereo in doubt; form 3)
4.7 µM	147 µM	1.9 µM	2.2 µM	Cc1ccc(CN(C(=O)CCCc2c(Cc3ccc(O)cc3)[nH]c3ccccc23)C2CCC(CC3CCC(N)CC3)CC2)cc1 (centres undefined)
7.4 µM	104 µM	9.8 µM	55 µM	CC(c1csc2ccccc12)N(CCCN)C(=O)CCCc1c[nH]c2ccccc12 (centres undefined)
2.7 µM		99 µM	17 µM	C/C(=C/c1ccccc1)CN(CCCCCN)C(=O)/C=C/c1c[nH]c2ccccc12
2.3 µM	8.1 µM	7.8 µM	6.9 µM	COc1cc(Br)c(CN(C(=O)CCCc2c[nH]c3ccccc23)[C@H]2CC[C@@H](C[C@H]3CC[C@@H](N)CC3)CC2)cc1OC
5.6 µM	65 µM	5.8 µM		NCCN(C/C(Cl)=C/c1ccccc1)C(=O)CCCc1c[nH]c2ccccc12
2.1 µM	24 µM	2.3 µM	5.2 µM	NC1CCC(CC2CCC(N(CCc3c(F)cccc3Cl)C(=O)CCCc3c[nH]c4ccccc34)CC2)CC1 (centres undefined)
2.7 µM	13 µM	3.4 µM	27 µM	N=C(N)NC1CCC(CC2CCC(N(C/C(Cl)=C/c3ccccc3)C(=O)CCCc3c[nH]c4ccccc34)CC2)CC1 (stereo in doubt; form 2)
5.4 µM	9.6 µM	4 µM	24 µM	N=C(N)NC1CCC(CC2CCC(N(C/C(Cl)=C/c3ccccc3)C(=O)CCCc3c[nH]c4ccccc34)CC2)CC1 (stereo in doubt; form 1)
2.6 µM	132 µM	2.5 µM	23 µM	COc1ccc(CN(C(=O)CCCc2c(Cc3ccc(O)cc3)[nH]c3ccccc23)C2CCC(CC3CCC(N)CC3)CC2)cc1Br (centres undefined)
3.2 µM	134 µM	96 µM	11 µM	N=C(N)NCCCCN(Cc1ccc2ccccc2c1)C(=O)CCCc1c[nH]c2ccccc12
0.96 µM		4.4 µM		NC1CCC(CC2CCC(N(C/C(Cl)=C/c3ccccc3)C(=O)COc3ccc4ccccc4c3)CC2)CC1 (stereo in doubt; form 4)
1.9 µM		5 µM		NC1CCC(CC2CCC(N(C/C(Cl)=C/c3ccccc3)C(=O)COc3ccc4ccccc4c3)CC2)CC1 (stereo in doubt; form 6)
18 µM	61 µM		19 µM	NCCCCCN(CCCc1ccccc1)C(=O)CCCc1c[nH]c2ccccc12
0.41 µM		3.4 µM		NC1CCC(CC2CCC(N(C/C(Cl)=C/c3ccccc3)C(=O)COc3ccc4ccccc4c3)CC2)CC1 (stereo in doubt; form 3)
1.9 µM		4.7 µM		NC1CCC(CC2CCC(N(C/C(Cl)=C/c3ccccc3)C(=O)COc3ccc4ccccc4c3)CC2)CC1 (stereo in doubt; form 1)
21 µM	127 µM		20 µM	NCCN(CCCc1ccccc1)C(=O)CCc1c[nH]c2ccccc12
3.7 µM		7 µM		NCCCN(C(=O)CCc1c[nH]c2ccccc12)C1CCc2ccccc2C1 (centres undefined)
1.3 µM		4 µM		NC1CCC(CC2CCC(N(C/C(Cl)=C/c3ccccc3)C(=O)COc3ccc4ccccc4c3)CC2)CC1 (stereo in doubt; form 7)
2.5 µM	28 µM	7 µM		NC1CCC(CC2CCC(N(Cc3ccncc3)C(=O)CCCc3c[nH]c4ccccc34)CC2)CC1 (stereo in doubt; form 1)
22 µM	49 µM	21 µM		NCCN(Cc1ccccc1)C(=O)CCCc1c[nH]c2ccccc12
